# Results reported in paper PMC8221158, “Novel pyrrolizines bearing 3,4,5-trimethoxyphenyl moiety: design, synthesis, molecular docking, and biological evaluation as potential multi-target cytotoxic agents” (Journal of Enzyme Inhibition and Medicinal Chemistry, 2021).
# Tests used:
# [1] = test system: MCF-7, HCT116, and A2780 cancer cell lines; assay: MTT assay, three cancer cell lines taken together (average, overall range); format: cell-based, human; settings: Homo sapiens; MCF-7, HCT116, A2780; read-out: Average of the three IC50 values against the three cancer cell lines
# MCF-7 = settings: MTT, 72 h; read-out: IC50 (µM ± SD) MCF-7; cited from earlier work
# A2780 = settings: MTT, 72 h; read-out: IC50 (µM ± SD) A2780; cited from earlier work
# normal MRC-5 cells = test system: normal MRC-5 cells; design: method as in PMID 31655429; settings: 72 h; read-out: IC50 (µM ± SD) MRC-5; cited from earlier work
# 20 kinases = test system: 20 kinases; design: method as in PMID 31655429; settings: ALK1, CDK-2/cyclin A1, DYRK3, GSK3 alpha, NEK1; cited from earlier work
# MCF-7 cells = test system: MCF-7 cells; design: method as in PMID 31655429; settings: 1 µM, 24 h; control 17.3%; cited from earlier work
# CDK-2 = molecular target: T1, CDK-2 (Homo sapiens, UniProt P24941); design: method as in PMID 17064068; settings: read-out: IC50 against CDK-2; cited from earlier work
# T1 construct: purchased Promega, Madison, WI
# Aurora A = molecular target: T2, Aurora A (Homo sapiens, UniProt O14965); assay: Kinase profiling test; format: biochemical; settings: stated as inhibition
# T2 sequence (O14965 1-403): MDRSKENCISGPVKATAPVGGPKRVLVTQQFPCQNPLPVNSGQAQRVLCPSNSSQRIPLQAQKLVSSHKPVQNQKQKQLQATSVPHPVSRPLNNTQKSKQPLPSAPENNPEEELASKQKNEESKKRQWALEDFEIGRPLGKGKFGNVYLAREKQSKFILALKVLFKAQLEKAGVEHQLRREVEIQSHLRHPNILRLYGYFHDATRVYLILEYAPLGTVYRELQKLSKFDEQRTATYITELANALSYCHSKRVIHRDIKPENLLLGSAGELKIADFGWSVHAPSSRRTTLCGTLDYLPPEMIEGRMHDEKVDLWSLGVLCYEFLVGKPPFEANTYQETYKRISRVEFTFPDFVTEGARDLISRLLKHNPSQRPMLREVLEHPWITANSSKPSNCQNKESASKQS
# Description: The test was performed using the radiolabeled ATP determination method (KINEXUS Bioinformatics Corporation, Vancouver, Canada). The test was performed following the previous reports[13]^,[20].
# The three compounds were tested at the same concentration (10 μM) against the same 20 kinases used in the previous report. The test was performed by KINEXUS Bioinformatics Corporation (Vancouver, Canada), following previous reports[13]^,[20].
# tubulin assembly = test system: tubulin assembly; design: method as in PMID 24890652; settings: cited from earlier work
# VEGFR-2 = test system: VEGFR-2; design: method as in PMID 24890652; settings: cited from earlier work
# [2] = test system: a panel of cancer cell lines; settings: read-out: cytotoxic activity IC50; cited from earlier work
# HDAC2 = settings: cited from earlier work
# HDAC1 = settings: cited from earlier work
# HDAC3 = settings: cited from earlier work
# porcine tubulin = molecular target: T3, porcine tubulin (Sus scrofa, UniProt P02550+P02554); assay: Tubulin polymerisation fluorescence-based assay; format: biochemical; settings: 3 μM, positive control (enhancer)
# T3 construct: purchased Cytoskeleton Inc., Denver, CO BK011P
# T3 sequence (P02550 whole entry): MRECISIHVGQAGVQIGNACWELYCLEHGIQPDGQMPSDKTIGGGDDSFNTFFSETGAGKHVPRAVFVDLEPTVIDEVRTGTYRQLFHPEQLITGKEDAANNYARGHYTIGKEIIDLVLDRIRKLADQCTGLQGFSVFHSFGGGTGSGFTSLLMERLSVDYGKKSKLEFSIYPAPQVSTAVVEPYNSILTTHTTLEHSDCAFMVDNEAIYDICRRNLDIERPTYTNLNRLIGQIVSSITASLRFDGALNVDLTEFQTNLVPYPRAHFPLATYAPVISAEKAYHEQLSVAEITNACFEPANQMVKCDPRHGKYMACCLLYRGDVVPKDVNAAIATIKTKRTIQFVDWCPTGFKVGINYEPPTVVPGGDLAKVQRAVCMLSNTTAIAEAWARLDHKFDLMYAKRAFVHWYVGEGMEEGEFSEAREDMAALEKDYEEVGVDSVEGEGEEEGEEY
# T3 sequence (P02554 whole entry): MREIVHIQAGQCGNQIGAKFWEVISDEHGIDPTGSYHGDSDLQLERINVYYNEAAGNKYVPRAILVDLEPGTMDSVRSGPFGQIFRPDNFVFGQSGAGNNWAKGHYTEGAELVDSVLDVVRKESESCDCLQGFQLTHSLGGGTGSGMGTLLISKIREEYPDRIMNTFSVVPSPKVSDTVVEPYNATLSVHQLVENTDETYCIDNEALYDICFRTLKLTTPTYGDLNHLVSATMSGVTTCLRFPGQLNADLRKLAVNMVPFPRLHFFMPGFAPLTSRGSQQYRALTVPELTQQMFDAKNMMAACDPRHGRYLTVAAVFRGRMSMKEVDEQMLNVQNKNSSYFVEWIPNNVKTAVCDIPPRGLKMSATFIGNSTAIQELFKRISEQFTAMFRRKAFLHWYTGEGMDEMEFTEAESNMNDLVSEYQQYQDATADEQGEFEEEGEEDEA
# Description: The effect of compounds 16a,b,d on tubulin polymerisation was measured in vitro using tubulin polymerisation fluorescence-based assay (cytoskeleton, cat. BK011P, https://www.cytoskeleton.com/bk011p). The assay was performed following the previous report[22] and according to the manufacturer’s instructions. Briefly, 2 mg/mL porcine tubulin was dissolved in buffer 1 (80 mM PIPES, 2 mM MgCl2, 0.5 mM EGTA pH 6.9, 10 µM fluorescent reporter, 1 mM GTP, 15% glycerol) to a final concentration of […]. Then tubulin solution was transferred to a pre-warmed 96-well plate that contained the test compounds 16a,b,d (5 μM), paclitaxel (3 μM), CaCl2 (0.5 μM), and control buffer. The polymerisation of tubulin was monitored as fluorescence at 37 °C for 60 min. Relative fluorescence units (RFU) were determined at 360 nm for excitation and at 460 nm for emission using the Varioskan Flash spectral scanning multimode reader (Thermo Fisher Scientific, Roskilde, Denmark) at a reading speed of 1 cycle/min.
# In the current study, the new compounds were designed bearing the trimethoxy phenyl moiety aiming to obtain new cytotoxic agents that can interfere with tubulin polymerisation in cancer cells. […] In this assay, light scattering by microtubules which is directly proportional to the concentration of the microtubule polymer was used as a measure of tubulin polymerisation. The study was performed using a fluorescence-based tubulin polymerisation assay kit (Cytoskeleton Inc., Denver, CO; Cat # BK011P) following the manufacturer’s instructions (https://www.cytoskeleton.com/bk011p) and according to the previous report.
# Paclitaxel (3 μM) was used as a tubulin polymerisation enhancer (positive control, enhancer), while calcium chloride (CaCl2, 0.5 μM) was used as a positive control (inhibitor) as per the manufacturer’s instructions (https://www.cytoskeleton.com/pdf-storage/datasheets/bk011p.pdf). The vehicle was also used to evaluate the polymerisation when tubulin is incubated in the absence of the test compound. The effect of the selected compounds (5 μM) on tubulin polymerisation was evaluated and compared with those of the positive control. The results are represented in Figure 8.
compound,measurement,setting,value
CC(C)C/C=N/c1c(C#N)c2n(c1C(=O)Nc1ccc(Br)cc1)CCC2 [9a],IC50,[1],310 nM
same,IC50,MCF-7,0.1 ± 0.05 µM
same,IC50,A2780,0.52 ± 0.02 µM
same,IC50,normal MRC-5 cells,25.8 ± 0.73 µM
same,inhibition% over the inhibited kinases of the panel,20 kinases,3–25%
same,Cell cycle S phase %,MCF-7 cells,55.6%
N#Cc1c(/N=C/c2ccccc2)c(C(=O)Nc2ccc(Br)cc2)n2c1CCC2 [9b],IC50,[1],2330 nM
same,IC50,MCF-7,0.5 ± 0.15 µM
same,IC50,A2780,4.16 ± 1.27 µM
same,IC50,normal MRC-5 cells,9 ± 0.13 µM
"Nc1n[nH]c(N)c1/N=N/c1ccc(O)cc1 [CAN508, 4-[(E)-(3,5-diamino-1H-pyrazol-4-yl)diazenyl)phenol]",IC50,CDK-2,3500 nM
"Cc1ccc(NC(=O)c2ccc(CN3CCN(C)CC3)cc2)cc1Nc1nccc(-c2cccnc2)n1 [Imatinib, reference compound]",inhibition at 10 µM,Aurora A,38%
COc1ccc(N(C)c2nc(C)nc3oc(C)cc23)cc1 [compound 7],IC50,tubulin assembly,1.9 nM
COc1cc2c(c(OC)c1OC)-c1ccc(OC)c(=O)cc1[C@@H](NCc1ccc(C(=O)Nc3ccccc3N)cc1)CC2 [compound 8],IC50,[2],2 to 105 nM
same,IC50,HDAC2,6730 nM
same,IC50,HDAC1,12500 nM
same,IC50,HDAC3,11200 nM
"CC(=O)O[C@H]1C(=O)[C@@]2(C)[C@H]([C@H](OC(=O)c3ccccc3)[C@]3(O)C[C@H](OC(=O)[C@H](O)[C@@H](NC(=O)c4ccccc4)c4ccccc4)C(C)=C1C3(C)C)[C@]1(OC(C)=O)CO[C@@H]1C[C@@H]2O [paclitaxel, reference compound]",effect on tubulin polymerisation,porcine tubulin,eliminated the nucleation phase I and enhanced the growth phase II
